Columns and labels:
VEGFR-1 = VEGFR-1 (Homo sapiens, UniProt P17948); assay: VEGFR-1 inhibition, whole cell phosphotyrosine ELISA cytoblot; assay type: cell-based; details: whole cell assay
PDGFR-β = PDGFR-β (Homo sapiens, UniProt P09619); assay: PDGFR-β inhibition, whole cell phosphotyrosine ELISA cytoblot; assay type: cell-based; details: whole cell assay
Chain of PDGFR-β (P09619 33-1106): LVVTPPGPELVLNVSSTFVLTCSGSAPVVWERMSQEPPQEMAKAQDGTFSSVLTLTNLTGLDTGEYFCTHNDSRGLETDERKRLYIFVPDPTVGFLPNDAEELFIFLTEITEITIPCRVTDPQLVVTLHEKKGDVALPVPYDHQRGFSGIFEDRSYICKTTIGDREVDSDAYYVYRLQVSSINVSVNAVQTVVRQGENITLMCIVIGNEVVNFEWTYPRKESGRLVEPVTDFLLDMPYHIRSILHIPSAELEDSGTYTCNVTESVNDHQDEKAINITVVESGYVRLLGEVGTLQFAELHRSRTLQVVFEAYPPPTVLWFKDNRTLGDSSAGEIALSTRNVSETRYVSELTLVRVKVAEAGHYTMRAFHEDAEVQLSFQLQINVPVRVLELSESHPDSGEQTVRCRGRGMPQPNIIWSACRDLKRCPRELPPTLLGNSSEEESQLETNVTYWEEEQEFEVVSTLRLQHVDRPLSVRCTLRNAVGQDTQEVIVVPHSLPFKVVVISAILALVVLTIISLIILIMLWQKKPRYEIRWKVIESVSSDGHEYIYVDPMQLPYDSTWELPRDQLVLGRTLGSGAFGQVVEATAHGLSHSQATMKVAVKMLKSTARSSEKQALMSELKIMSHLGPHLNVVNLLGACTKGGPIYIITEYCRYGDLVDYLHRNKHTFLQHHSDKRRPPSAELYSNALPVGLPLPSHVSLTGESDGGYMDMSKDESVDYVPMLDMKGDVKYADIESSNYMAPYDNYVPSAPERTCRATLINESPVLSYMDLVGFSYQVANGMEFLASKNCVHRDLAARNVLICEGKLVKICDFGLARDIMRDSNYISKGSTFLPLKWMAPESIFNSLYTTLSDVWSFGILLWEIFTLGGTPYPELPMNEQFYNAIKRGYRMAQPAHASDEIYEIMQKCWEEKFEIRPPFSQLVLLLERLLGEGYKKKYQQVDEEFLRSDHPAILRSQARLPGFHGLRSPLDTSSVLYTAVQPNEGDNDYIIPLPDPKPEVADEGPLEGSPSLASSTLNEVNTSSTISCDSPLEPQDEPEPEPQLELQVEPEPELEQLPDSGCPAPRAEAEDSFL

Chain of VEGFR-1 (P17948 27-1338): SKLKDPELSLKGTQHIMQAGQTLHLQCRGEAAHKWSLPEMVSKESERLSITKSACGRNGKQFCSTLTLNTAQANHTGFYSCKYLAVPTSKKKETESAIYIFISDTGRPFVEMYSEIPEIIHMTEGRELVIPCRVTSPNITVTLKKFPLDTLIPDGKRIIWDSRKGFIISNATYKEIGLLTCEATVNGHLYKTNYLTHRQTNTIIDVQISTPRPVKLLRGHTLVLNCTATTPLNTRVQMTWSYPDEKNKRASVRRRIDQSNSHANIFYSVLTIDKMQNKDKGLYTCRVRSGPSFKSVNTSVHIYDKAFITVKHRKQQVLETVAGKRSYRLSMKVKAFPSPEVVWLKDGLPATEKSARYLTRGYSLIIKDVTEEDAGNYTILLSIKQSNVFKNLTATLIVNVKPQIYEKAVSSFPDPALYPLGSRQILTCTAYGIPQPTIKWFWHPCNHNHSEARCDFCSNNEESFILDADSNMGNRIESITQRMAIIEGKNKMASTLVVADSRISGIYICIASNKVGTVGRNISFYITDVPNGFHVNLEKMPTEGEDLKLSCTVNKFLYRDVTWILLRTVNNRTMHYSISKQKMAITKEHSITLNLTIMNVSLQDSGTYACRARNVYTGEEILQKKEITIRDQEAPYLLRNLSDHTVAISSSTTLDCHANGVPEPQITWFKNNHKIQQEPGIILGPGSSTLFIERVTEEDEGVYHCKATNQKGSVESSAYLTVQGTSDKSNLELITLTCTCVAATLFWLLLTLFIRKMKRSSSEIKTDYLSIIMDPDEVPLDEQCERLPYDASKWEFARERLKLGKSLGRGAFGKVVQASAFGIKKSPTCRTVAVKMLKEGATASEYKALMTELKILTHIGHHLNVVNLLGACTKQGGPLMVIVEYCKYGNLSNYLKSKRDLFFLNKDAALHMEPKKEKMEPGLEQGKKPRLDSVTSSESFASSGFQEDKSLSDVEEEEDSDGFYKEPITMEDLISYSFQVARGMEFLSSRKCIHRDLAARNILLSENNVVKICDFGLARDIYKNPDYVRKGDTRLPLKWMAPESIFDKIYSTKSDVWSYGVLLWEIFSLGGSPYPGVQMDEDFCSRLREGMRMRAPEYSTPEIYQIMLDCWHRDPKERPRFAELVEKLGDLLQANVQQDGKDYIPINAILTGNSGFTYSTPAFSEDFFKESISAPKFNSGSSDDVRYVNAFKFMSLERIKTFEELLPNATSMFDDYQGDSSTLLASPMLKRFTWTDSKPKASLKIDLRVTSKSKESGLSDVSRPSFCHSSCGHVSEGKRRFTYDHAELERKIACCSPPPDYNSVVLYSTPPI

| VEGFR-1 inhibition, result in words (VEGFR-1) | PDGFR-β inhibition, result in words (PDGFR-β) | SMILES |
| --- | --- | --- |
| inactive | inactive | Fc1cc(Cl)ccc1Nc1ncnc2[nH]c(CCc3ccccc3)cc12 [Compound 24] |
| inactive | inactive | FC(F)(F)c1cccc(Nc2ncnc3[nH]c(CCc4ccccc4)cc23)c1 [Compound 21] |
|  | inactive | Fc1ccc(Nc2ncnc3[nH]c(CCc4ccccc4)cc23)cc1C(F)(F)F [Compound 23] |
|  | inactive | C#Cc1cccc(Nc2ncnc3[nH]c(CCc4ccccc4)cc23)c1 [Compound 20] |
| inactive |  | Fc1ccc(Nc2ncnc3[nH]c(CCc4ccccc4)cc23)cc1Br [Compound 22] |
